From US8273754B2, “Substituted 1H-pyrazolo[3,4-D]pyrimidine-6-amine compounds” (ArQule, Inc., priority 2008, dated 2012) come the findings set out here.

The structures appear in SMILES notation. Like-named read-outs stand apart in the source and are kept apart here.

The subject of this assay is cancer cells. Nature of the assay: MTS cell growth inhibition assay (72 hours). In kind it is cell-based. The gist of the method: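 Growth inhibition read as formazan absorbance at 492 nm after 4 h MTS/PMS, following 72 h compound exposure at 37 °C in 1% FBS DMEM (cells pre-seeded 18 h). IC50 = 50% absorbance reduction; inhibition graded in bands.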
Setting [1] is: Homo sapiens, DLD-1, 72 h, DLD-1 cells, read-out: DLD-1 MTS 72 hr at 10 μM.
Setting [2] is: Homo sapiens, KATO III, 72 h, KATO III cells, read-out: KATO III MTS 72 hr at 10 μM.
The mark [3] stands for this setting: Homo sapiens, MDA-MB-231, 72 h, MDA-MB-231 cells, read-out: MDA-MB-231 MTS 72 hr at 10 μM.
Where [4] appears, read: Homo sapiens, NCI-H1299, 72 h, NCI-H1299 cells, read-out: NCI-H1299 MTS 72 hr at 10 μM.
[5] abbreviates: PaCa-2, 72 h, PACA-2 cells, read-out: PACA-2 MTS 72 hr at 10 μM.

For the compound `Cc1ccc(Oc2ccccc2CN2CC(Nc3nc(N)nc4[nH]ncc34)Cc3ccccc32)cc1` (stereo not shown) [Compound 158, N4-{1-[2-(4-methylphenoxy)benzyl]-1,2,3,4-tetrahydroquinolin-3-yl}-1H-pyrazolo[3,4-d]pyrimidine-4,6-diamine], the inhibition at 10 µM reads like this: under setting [1], greater than 79%; under setting [2], greater than 79%; under setting [3], 50 to 79%; under setting [4], less than 50%; under setting [5], greater than 79%.
Take `Nc1nc(NC2Cc3ccccc3N(Cc3ccccc3-c3ccc(F)cc3)C2)c2cn[nH]c2n1` (stereo not shown) [Compound 159, N4-{1-[(4′-fluorobiphenyl-2-yl)methyl]-1,2,3,4-tetrahydroquinolin-3-yl}-1H-pyrazolo[3,4-d]pyrimidine-4,6-diamine]: the inhibition at 10 µM is less than 50% under setting [1]; less than 50% under setting [2]; less than 50% under setting [3]; less than 50% under setting [4]; less than 50% under setting [5].
Regarding `COc1ccc(CN2CC(Nc3nc(N)nc4[nH]ncc34)Cc3ccccc32)cc1OCc1ccccc1` (stereo not shown) [Compound 160, N4-{1-[3-(benzyloxy)-4-methoxybenzyl]-1,2,3,4-tetrahydroquinolin-3-yl}-1H-pyrazolo[3,4-d]pyrimidine-4,6-diamine], the inhibition at 10 µM was greater than 79% under setting [1]; greater than 79% under setting [2]; less than 50% under setting [3]; less than 50% under setting [4]; greater than 79% under setting [5].
As to `Cc1ccccc1-n1ncc(CN2CC(Nc3nc(N)nc4[nH]ncc34)Cc3ccccc32)c1C` (stereo not shown) [Compound 161, N4-(1-{[5-methyl-1-(2-methylphenyl)-1H-pyrazol-4-yl]methyl}-1,2,3,4-tetrahydroquinolin-3-yl)-1H-pyrazolo[3,4-d]pyrimidine-4,6-diamine], the inhibition at 10 µM reads like this: under setting [1], less than 50%; under setting [2], less than 50%; under setting [3], less than 50%; under setting [4], less than 50%; under setting [5], less than 50%.
As to `COc1ccc(CN2CC(Nc3nc(N)nc4[nH]ncc34)Cc3ccccc32)cc1OC1CCCC1` (stereo not shown) [Compound 162, N4-{1-[3-(cyclopentyloxy)-4-methoxybenzyl]-1,2,3,4-tetrahydroquinolin-3-yl}-1H-pyrazolo[3,4-d]pyrimidine-4,6-diamine], the inhibition at 10 µM is, setting by setting: under setting [1], less than 50%; under setting [2], less than 50%; under setting [3], less than 50%; under setting [4], less than 50%; under setting [5], less than 50%.
In the case of `Nc1nc(NC2Cc3ccccc3N(Cc3cc(Cl)ccc3C(F)(F)F)C2)c2cn[nH]c2n1` (stereo not shown) [Compound 163, N4-{1-[5-chloro-2-(trifluoromethyl)benzyl]-1,2,3,4-tetrahydroquinolin-3-yl}-1H-pyrazolo[3,4-d]pyrimidine-4,6-diamine], the inhibition at 10 µM is, setting by setting: under setting [1], greater than 79%; under setting [2], greater than 79%; under setting [3], greater than 79%; under setting [4], greater than 79%; under setting [5], greater than 79%.
In the case of `Nc1nc(NC2Cc3ccccc3N(Cc3cccc(Oc4ccc(Cl)cc4)c3)C2)c2cn[nH]c2n1` (stereo not shown) [Compound 164, N4-{1-[3-(4-chlorophenoxy)benzyl]-1,2,3,4-tetrahydroquinolin-3-yl}-1H-pyrazolo[3,4-d]pyrimidine-4,6-diamine], the inhibition at 10 µM under setting [1] was in the range of 50 to 79%; the inhibition at 10 µM under setting [2] lay within 50 to 79%; the inhibition at 10 µM under setting [3] is less than 50%; the inhibition at 10 µM under setting [4] is less than 50%; the inhibition at 10 µM under setting [5] was less than 50%.
`Nc1nc(NC2CCN(S(=O)(=O)c3ccc4c(c3)OCCO4)c3ccccc3C2)c2cn[nH]c2n1` (stereo not shown) [Compound 165, N4-[1-(2,3-dihydro-1,4-benzodioxin-6-ylsulfonyl)-2,3,4,5-tetrahydro-1H-1-benzazepin-4-yl]-1H-pyrazolo[3,4-d]pyrimidine-4,6-diamine]: the inhibition at 10 µM runs as follows: under setting [1], less than 50%; under setting [2], less than 50%; under setting [3], less than 50%; under setting [4], less than 50%; under setting [5], less than 50%.
As for `Nc1nc(NC2CCN(S(=O)(=O)c3ccccc3)c3ccccc3C2)c2cn[nH]c2n1` (stereo not shown) [Compound 166, N^4-(1-(phenylsulfonyl)-2,3,4,5-tetrahydro-1H-benzo[b]azepin-4-yl)-1H-pyrazolo[3,4-d]pyrimidine-4,6-diamine], the inhibition at 10 µM is, setting by setting: under setting [1], less than 50%; under setting [2], less than 50%; under setting [3], less than 50%; under setting [4], less than 50%; under setting [5], less than 50%.
Take `Nc1nc(NC2CCN(S(=O)(=O)c3ccsc3)c3ccccc3C2)c2cn[nH]c2n1` (stereo not shown) [Compound 167, N4-[1-(3-thienylsulfonyl)-2,3,4,5-tetrahydro-1H-1-benzazepin-4-yl]-1H-pyrazolo[3,4-d]pyrimidine-4,6-diamine]: the inhibition at 10 µM reads like this: under setting [1], less than 50%; under setting [2], less than 50%; under setting [3], less than 50%; under setting [4], less than 50%; under setting [5], less than 50%.
On to `Cc1cccc(S(=O)(=O)N2CCC(Nc3nc(N)nc4[nH]ncc34)Cc3ccccc32)c1` (stereo not shown) [Compound 168, N4-{1-[(3-methylphenyl)sulfonyl]-2,3,4,5-tetrahydro-1H-1-benzazepin-4-yl}-1H-pyrazolo[3,4-d]pyrimidine-4,6-diamine], for which the inhibition at 10 µM is less than 50% under setting [1]; less than 50% under setting [2]; less than 50% under setting [3]; less than 50% under setting [4]; less than 50% under setting [5].
`Nc1nc(NC2CCN(S(=O)(=O)c3cccc(F)c3)c3ccccc3C2)c2cn[nH]c2n1` (stereo not shown) [Compound 169, N4-{1-[(3-fluorophenyl)sulfonyl]-2,3,4,5-tetrahydro-1H-1-benzazepin-4-yl}-1H-pyrazolo[3,4-d]pyrimidine-4,6-diamine]: the inhibition at 10 µM by setting is: under setting [1], less than 50%; under setting [2], less than 50%; under setting [3], less than 50%; under setting [4], less than 50%; under setting [5], less than 50%.
As to `Nc1nc(NC2CCN(S(=O)(=O)c3ccc(Cl)c(C(F)(F)F)c3)c3ccccc3C2)c2cn[nH]c2n1` (stereo not shown) [Compound 170, N4-(1-{[4-chloro-3-(trifluoromethyl)phenyl]sulfonyl}-2,3,4,5-tetrahydro-1H-1-benzazepin-4-yl)-1H-pyrazolo[3,4-d]pyrimidine-4,6-diamine], the inhibition at 10 µM under setting [1] was less than 50%; the inhibition at 10 µM under setting [2] is greater than 79%; the inhibition at 10 µM under setting [3] is greater than 79%; the inhibition at 10 µM under setting [4] is less than 50%; the inhibition at 10 µM under setting [5] was 50 to 79%.
Consider `Nc1nc(NC2CCN(S(=O)(=O)c3ccc(Cl)cc3)c3ccccc3C2)c2cn[nH]c2n1` (stereo not shown) [Compound 171, N4-{1-[(4-chlorophenyl)sulfonyl]-2,3,4,5-tetrahydro-1H-1-benzazepin-4-yl}-1H-pyrazolo[3,4-d]pyrimidine-4,6-diamine], for which the inhibition at 10 µM under setting [1] is less than 50%; the inhibition at 10 µM under setting [2] is less than 50%; the inhibition at 10 µM under setting [3] was less than 50%; the inhibition at 10 µM under setting [4] was less than 50%; the inhibition at 10 µM under setting [5] was less than 50%.
